According to patent US20240246980A1, “MODULATORS OF MAS-RELATED G-PROTEIN RECEPTOR D AND RELATED PRODUCTS AND METHODS” (Escient Pharmaceuticals, Inc., priority 2022, published 2024):

molecular target: human MRGPRD (Homo sapiens, UniProt Q8TDS7); experiment: MRGPRD antagonist activity, IP-One HTRF assay in CHO cells stably expressing human MRGPRD (versus 100 μM β-Alanine agonist); assay type: cell-based
Experimental: Chinese Hamster Ovary (CHO) cells stably expressing human MRGPRD (Eurofins, San Diego CA) were plated in a 384-well plate at 20,000 cells per well in 12 μL of Optimem (Fisher Scientific 11-058-021). Plates were kept in the incubator at 37° C. overnight. Antagonists were solubilized at a concentration of 10 mM in DMSO, and the agonists were solubilized to stock concentrations of either 50 mM in H2O (β-Alanine) or 10 mM in DMSO (all others) and then diluted in assay buffer (final concentrations of 5.7 mM Tris-HCl, 43 mM NaCl, 50 mM LiCl, pH=8). The concentration of DMSO was normalized across the plate. Antagonists were added to the plate using a Tecan D300 Digital Dispenser at nanoliter/picoliter volumes and 2 μL of agonists in assay buffer were added to each well for a final assay volume of 14 μL. Plates were covered and incubated for 1 h at 37° C. and then for 1 h at room temperature. IP-1 standards and HTRF detection reagents were added according to an IP-One-Gq Kit purchased from Cisbio (part number 62IPAPEJ) and incubated in the dark for 1 h at room temperature. Assay plates were read on either a Molecular Devices SpectraMax iD5 plate reader or a BMG ClarioStar plate reader. The HTRF ratio was calculated form the raw data and graphed using GraphPad Prism to calculate IC50 values. Data are expressed as average IC50 values and average percent antagonism calculated as a percent of the maximum efficacy response. For these studies, the variability of the data was assessed by determining the standard error of mean (SEM).
The activity ranges are denoted as follows: “+++++” denotes antagonist activity <100 nM; “++++” denotes antagonist activity between 100 and 500 nM; “+++” denotes activity between 500 and 1000 nM; “++” denotes activity between 1000 and 3000 nM; and “+” denotes activity >3000 nM.

human MRGPRD, sequence (Q8TDS7 whole entry): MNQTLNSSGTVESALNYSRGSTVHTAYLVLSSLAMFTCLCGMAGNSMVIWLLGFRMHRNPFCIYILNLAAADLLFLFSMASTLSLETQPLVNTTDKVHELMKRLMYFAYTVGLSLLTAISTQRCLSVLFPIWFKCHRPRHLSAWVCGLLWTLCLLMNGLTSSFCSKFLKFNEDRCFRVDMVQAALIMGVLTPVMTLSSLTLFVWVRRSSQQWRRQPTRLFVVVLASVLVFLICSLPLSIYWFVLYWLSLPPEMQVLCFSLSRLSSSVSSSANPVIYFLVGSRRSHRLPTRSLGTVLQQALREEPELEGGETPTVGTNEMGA

Row | IC50 [nM] | SMILES
1 | 1000 to 3000 | COc1ccc(NC(=O)N2CCC[C@H](c3nc(-c4cccc(OC)c4)c4ccccn34)C2)cc1 (stereo in doubt) [Compound 5-29]
2 | 100 to 500 | COc1cccc(-c2nc([C@@H]3CCCN(C(=O)Nc4ccc(N5CCCC5)cc4)C3)n3ccccc23)c1 [Compound 1-1]
3 | < 100 | COc1cccc(-c2nc([C@@H]3CCCN(C(=O)Nc4ccc(N(C)C)cc4)C3)n3ccccc23)c1 [Compound 1-2, (R)—N-(4-(dimethylamino)phenyl)-3-(1-(3-methoxyphenyl)imidazo[1,5-a]pyridin-3-yl)piperidine-1-carboxamide]
4 | 1000 to 3000 | COc1cccc(-c2nc(C3CCCN(C(=O)N(C)c4ccccc4F)C3)n3ccccc23)c1 (stereo not drawn) [Compound 1-3]
5 | 500 to 1000 | COc1cccc(-c2nc(C3CCCN(C(=O)N(C)c4cccc(F)c4)C3)n3ccccc23)c1 (stereo not drawn) [Compound 1-4]
6 | 1000 to 3000 | COc1cccc(-c2nc([C@H]3CCCN(C(=O)Nc4ccc(N(C)C)cc4)C3)n3ccccc23)c1 [Compound 1-5]
7 | < 100 | COc1cccc(-c2nc([C@@H]3CCCN(C(=O)Nc4ccc(N(C)C)c(F)c4)C3)n3ccccc23)c1 [Compound 1-6]
8 | < 100 | COc1cccc(-c2nc([C@@H]3CCCN(C(=O)Nc4ccc(N(C)C)c(C)c4)C3)n3ccccc23)c1 [Compound 1-7]
9 | < 100 | COc1cccc(-c2nc([C@@H]3CCCN(C(=O)Nc4ccc(N(C)C)cc4C)C3)n3ccccc23)c1 [Compound 1-8]
10 | < 100 | COc1cccc(NC(=O)N2CCC[C@@H](c3nc(-c4cccc(OC)c4)c4ccccn34)C2)c1 [Compound 1-9]
11 | 100 to 500 | COc1cccc(-c2nc([C@@H]3CCCN(C(=O)Nc4ccc(C)c(C)c4)C3)n3ccccc23)c1 [Compound 1-10]
12 | 100 to 500 | COc1cccc(-c2nc([C@@H]3CCCN(C(=O)Nc4ccc(C)cc4F)C3)n3ccccc23)c1 [Compound 1-11]
13 | < 100 | CCc1ccc(NC(=O)N2CCC[C@@H](c3nc(-c4cccc(OC)c4)c4ccccn34)C2)cc1 [Compound 1-12]
14 | 100 to 500 | COc1cccc(-c2nc([C@@H]3CCCN(C(=O)Nc4cccc(C)c4)C3)n3ccccc23)c1 [Compound 1-13]
15 | 100 to 500 | COc1cccc(-c2nc([C@@H]3CCCN(C(=O)Nc4cccc(F)c4)C3)n3ccccc23)c1 [Compound 1-14]
16 | 100 to 500 | COc1cccc(-c2nc([C@@H]3CCCN(C(=O)Nc4ccccc4C(F)(F)F)C3)n3ccccc23)c1 [Compound 1-15]
17 | 100 to 500 | COc1cccc(-c2nc([C@@H]3CCCN(C(=O)Nc4cccc(C#N)c4)C3)n3ccccc23)c1 [Compound 1-16]
18 | < 100 | COc1ccc(NC(=O)N2CCC[C@@H](c3nc(-c4cccc(OC)c4)c4ccccn34)C2)cc1 [Compound 1-17]
19 | 100 to 500 | COc1cccc(-c2nc([C@@H]3CCCN(C(=O)Nc4ccc(C)cc4)C3)n3ccccc23)c1 [Compound 1-18]
20 | < 100 | CCN(CC)c1ccc(NC(=O)N2CCC[C@@H](c3nc(-c4cccc(OC)c4)c4ccccn34)C2)cc1 [Compound 1-19]
21 | < 100 | COc1cccc(-c2nc([C@@H]3CCCN(C(=O)Nc4ccc(C(=O)N(C)C)cc4)C3)n3ccccc23)c1 [Compound 1-20]
22 | 500 to 1000 | COc1cccc(-c2nc([C@@H]3CCCN(C(=O)Nc4ccccc4CN(C)C)C3)n3ccccc23)c1 [Compound 1-21]
23 | 500 to 1000 | COc1cccc(-c2nc([C@@H]3CCCN(C(=O)Nc4cccc(C(F)(F)F)c4)C3)n3ccccc23)c1 [Compound 1-22]
24 | 500 to 1000 | COc1cccc(-c2nc([C@@H]3CCCN(C(=O)Nc4cccc(OC(F)(F)F)c4)C3)n3ccccc23)c1 [Compound 1-23]
25 | < 100 | CCOc1cccc(NC(=O)N2CCC[C@@H](c3nc(-c4cccc(OC)c4)c4ccccn34)C2)c1 [Compound 1-24]
26 | < 100 | CCOc1ccc(NC(=O)N2CCC[C@@H](c3nc(-c4cccc(OC)c4)c4ccccn34)C2)cc1 [Compound 1-25]
27 | 100 to 500 | COc1cccc(-c2nc([C@@H]3CCCN(C(=O)Nc4ccc(CN(C)C)cc4)C3)n3ccccc23)c1 [Compound 1-26]
